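Values below derive from 48-hour exposures of cells grown in 96-well plates, with endpoints linearly interpolated between the two concentrations bracketing the appropriate inhibition level. Abbreviation: GI50, concentration required for 50% inhibition of growth. TGI denotes the concentration required for complete inhibition of growth.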
How the values were obtained:
Test in all cases: DTP human tumour cell line panel, 48 h
SNB-19 CNS = system: SNB-19 CNS
UACC-257 melanoma = system: UACC-257 melanoma
HOP-62 NSCLC = system: HOP-62 NSCLC
T-47D breast = system: T-47D breast
OVCAR-5 ovarian = system: OVCAR-5 ovarian
CCRF-CEM leukemia = system: CCRF-CEM leukemia
SN12C renal = system: SN12C renal
HT29 colon = system: HT29 colon
ACHN renal = system: ACHN renal
A498 renal = system: A498 renal

| SMILES | TGI (SNB-19 CNS) [µM] | TGI (UACC-257 melanoma) [µM] | TGI (HOP-62 NSCLC) [µM] | TGI (T-47D breast) [µM] | TGI (OVCAR-5 ovarian) [µM] | TGI (CCRF-CEM leukemia) [µM] | TGI (SN12C renal) [µM] | TGI (HT29 colon) [µM] | TGI (ACHN renal) [µM] | TGI (A498 renal) [µM] | GI50 (SNB-19 CNS) [µM] | GI50 (UACC-257 melanoma) [µM] | GI50 (OVCAR-5 ovarian) [µM] | GI50 (CCRF-CEM leukemia) [µM] | GI50 (HT29 colon) [µM] | GI50 (ACHN renal) [µM] | GI50 (A498 renal) [µM] | GI50 (HOP-62 NSCLC) [µM] | GI50 (SN12C renal) [µM] |
| --- | --- | --- | --- | --- | --- | --- | --- | --- | --- | --- | --- | --- | --- | --- | --- | --- | --- | --- | --- |
| O=C(NCCCCCCO)c1cccc2cc3ccccc3nc12 | 32.1 | 33.9 | 32.9 | 26 | 38.9 | > 100 | 49.5 | 36.6 | 39.2 | – | – | – | – | – | – | – | – | – | – |
| O=c1c(O)cccn1C1OC(CO)C(O)C1O (stereo not drawn) | > 100 | > 100 | – | – | > 100 | > 100 | > 100 | > 100 | > 100 | > 100 | – | – | – | – | – | – | – | – | – |
| C[PH+](c1nc2ccccc2nc1[PH+](C)C(C)(C)C)C(C)(C)C.C[PH+](c1nc2ccccc2nc1[PH+](C)C(C)(C)C)C(C)(C)C.[Au+].[Cl-] (stereo not drawn) | 1.7 | 0.278 | – | – | 0.457 | 1.5 | – | – | 0.835 | 0.445 | 0.0453 | 0.0359 | 0.0441 | 0.0603 | 0.0294 | 0.113 | 0.0263 | – | – |
| CCN(CCCl)c1cccc(NC(=O)c2ccc(C(=O)Nc3cccc(CN(C)C)c3)cc2)c1 | 0.887 | 0.304 | 6.14 | 0.662 | 32 | 1.22 | 2.44 | – | 0.624 | 0.502 | – | – | – | – | – | – | – | – | – |
| C=CCCCCn1c2ccccc2c2c(C)c3cnccc3c(C)c21 | 37.9 | 18.7 | 35.9 | – | 40.4 | 14.3 | 29.7 | 25.7 | – | 17.8 | – | – | – | – | – | – | – | – | – |
| N#Cc1c(N2CCN(c3ccc([N+](=O)[O-])cc3)CC2)[n+](=O)c2ccc(-c3ccc([N+](=O)[O-])cc3)cc2n1[O-] | > 100 | > 100 | 23.8 | > 100 | > 100 | > 100 | – | > 100 | > 100 | > 100 | – | – | – | – | – | – | – | – | – |
| C[C@]12CC[C@H]3[C@@H](CCC4=C(Br)C(=O)C=C[C@@]43O)[C@@H]1CCC2=O | > 100 | 63.8 | > 100 | – | > 100 | 31.7 | > 100 | > 100 | > 100 | > 100 | – | – | – | – | – | – | – | – | – |
| C[C@]12CCC(=O)C=C1CC[C@@H]1[C@@H]2[C@@H](O)C[C@@]2(C)[C@H]1CC[C@]2(O)C(=O)COC(=O)CCC1CCCC1 | > 100 | > 100 | – | – | > 100 | > 100 | > 100 | > 100 | > 100 | > 100 | – | – | – | – | – | – | – | – | – |
| COC(=O)[C@@H]1C=C[C@H](NC(C)=O)C1 | > 100 | > 100 | > 100 | > 100 | > 100 | > 100 | > 100 | > 100 | – | > 100 | – | – | – | – | – | – | – | – | – |
| COc1cc2oc(=O)cc(C)c2cc1OC | > 100 | > 100 | > 100 | – | > 100 | > 100 | > 100 | > 100 | > 100 | > 100 | – | – | – | – | – | – | – | – | – |
| O=c1c2cc(Br)ccc2ncn1COCc1ccccc1 | > 100 | > 100 | – | – | > 100 | > 100 | – | > 1 | 74 | > 100 | – | – | – | – | – | – | – | – | – |
| COC(=O)[C@](C)(Cc1ccccc1)NC(=O)[C@@H](C)N1[C@@H](c2ccccc2)COC1(C)C | > 100 | > 100 | > 100 | > 100 | > 100 | > 100 | – | > 100 | > 100 | > 100 | – | – | – | – | – | – | – | – | – |
| NC1c2c(Cl)sc(Cl)c2C(=O)C1O (stereo not drawn) | > 100 | > 100 | – | > 100 | > 100 | 37.7 | 29.2 | 33.9 | 99.6 | > 100 | – | – | – | – | – | – | – | – | – |
| Cc1nc2cccc(F)c2c(=O)n1-c1nnc(C(F)(F)F)s1 | > 10 | > 10 | > 10 | > 10 | > 10 | > 10 | > 10 | > 10 | > 10 | – | – | – | – | – | – | – | – | – | – |
| Cc1c(C#N)c(=N)oc2ccccc12 | > 100 | > 100 | > 100 | > 100 | > 100 | – | > 100 | > 100 | > 100 | > 100 | – | – | – | – | – | – | – | – | – |
| COC(=O)c1cc(C)ccc1C1CN=NC12Cc1c(C)cc(C)cc1C2=O (stereo not drawn) | > 100 | 69.7 | > 100 | > 100 | > 100 | 86.5 | > 100 | 45.8 | > 100 | – | – | – | – | – | – | – | – | – | – |
| O=c1nc2ccc3sc4ccccc4c(=O)c3n2c(=O)[nH]1 | > 100 | > 100 | > 100 | – | > 100 | > 100 | > 100 | > 100 | > 100 | > 100 | – | – | – | – | – | – | – | – | – |
| CC(C)(Cc1ccccc1)N1C(=O)N1C(C)(C)Cc1ccccc1 | > 100 | > 100 | – | > 100 | 83.1 | 61.3 | > 100 | 32.9 | – | > 100 | – | – | – | – | – | – | – | – | – |
| NC(=S)NNC(=S)NC(=O)c1ccco1 | > 10 | > 10 | > 10 | > 10 | > 10 | > 10 | > 10 | > 10 | > 10 | – | – | – | – | – | – | – | – | – | – |
| CCOC(=O)CCC(NC(=O)OCc1ccccc1)C(=O)NC(CCC(=O)OCC)C(=O)NC(CCC(=O)OCC)C(=O)NNC(=O)OC(C)(C)C (stereo not drawn) | > 100 | > 100 | > 100 | – | > 100 | > 100 | > 100 | > 100 | > 100 | > 100 | – | – | – | – | – | – | – | – | – |
| CS(=O)(=O)[O-].CS(=O)(=O)[O-].NC1CCCCC1N.[Pt+4] (stereo not drawn) | > 100 | > 100 | > 100 | – | > 100 | > 100 | > 100 | > 100 | – | > 100 | > 100 | > 100 | > 100 | 40.2 | 62.3 | – | > 100 | > 100 | > 84.7 |
| CC1(C)C=[N+]([O-])C(C)(C)N1O | > 10 | > 10 | > 10 | > 10 | > 10 | > 10 | > 10 | > 10 | > 10 | – | – | – | – | – | – | – | – | – | – |
